Assay results taken from ChEMBL document CHEMBL1201862, “PubChem BioAssay data set” (2004).
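All cell lines were grown in 96-well plates and treated with compound for 48 hours. GI50: concentration for 50% inhibition of growth.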 Active and inactive are the calls of the source. Rule as the data show it: active = GI50 up to about 1.1 µM and inactive = higher.

Key:
Test in all cases: growth of human tumour cells (NCI), 48 h
SF-295 = test system: SF-295
SK-MEL-28 = test system: SK-MEL-28
Hs-578T = test system: Hs-578T
SN12C = test system: SN12C
SF-268 = test system: SF-268
A498 = test system: A498
786-0 = test system: 786-0
MDA-MB-231 = test system: MDA-MB-231
DU-145 = test system: DU-145
KM12 = test system: KM12
HCC 2998 = test system: HCC 2998
CCRF-CEM = test system: CCRF-CEM
HOP-92 = test system: HOP-92
SW-620 = test system: SW-620
NCI-H226 = test system: NCI-H226
OVCAR-4 = test system: OVCAR-4
MOLT-4 = test system: MOLT-4
HOP-62 = test system: HOP-62
OVCAR-3 = test system: OVCAR-3
SR = test system: SR

Structure (SMILES) | GI50 (SF-295) | GI50 (SK-MEL-28) | GI50 (Hs-578T) | GI50 (SN12C) | GI50 (SF-268) | GI50 (A498) | GI50 (786-0) | GI50 (MDA-MB-231) | GI50 (DU-145) | GI50 (KM12) | GI50 (HCC 2998) | GI50 (CCRF-CEM) | GI50 (HOP-92) | GI50 (SW-620) | GI50 (NCI-H226) | GI50 (OVCAR-4) | GI50 (MOLT-4) | GI50 (HOP-62) | GI50 (OVCAR-3) | GI50 (SR)
COC1=CC23CCCN2CCc2cc4c(cc2C3C1O)OCO4 (configuration not stated) | 36.1 µM (inactive) | > 100 µM (inactive) | 82 µM (inactive) | 57.5 µM (inactive) | 50.2 µM (inactive) | 59.3 µM (inactive) | 44.9 µM (inactive) | > 100 µM (inactive) | 43 µM (inactive) | 47 µM (inactive) | 70.3 µM (inactive) | 41.2 µM (inactive) | > 100 µM (inactive) | 66.1 µM (inactive) | > 100 µM (inactive) | 44.6 µM (inactive) | 66.7 µM (inactive) | – | – | –
CCN(CC)CCn1ncc2c(N)ncnc21 | > 100 µM (inactive) | > 100 µM (inactive) | > 100 µM (inactive) | > 100 µM (inactive) | > 100 µM (inactive) | > 100 µM (inactive) | > 100 µM (inactive) | > 100 µM (inactive) | > 100 µM (inactive) | > 100 µM (inactive) | > 100 µM (inactive) | 34.7 µM (inactive) | > 100 µM (inactive) | > 100 µM (inactive) | > 100 µM (inactive) | > 100 µM (inactive) | > 100 µM (inactive) | > 100 µM (inactive) | > 100 µM (inactive) | –
N#Cc1nc(-c2ccsc2)oc1N | – | > 100 µM (inactive) | > 100 µM (inactive) | > 100 µM (inactive) | > 100 µM (inactive) | > 100 µM (inactive) | > 100 µM (inactive) | > 100 µM (inactive) | > 100 µM (inactive) | > 100 µM (inactive) | – | > 100 µM (inactive) | > 100 µM (inactive) | > 100 µM (inactive) | – | – | > 100 µM (inactive) | > 100 µM (inactive) | – | > 100 µM (inactive)
CCOC(=O)Nc1nn[nH]c1Cl | – | > 100 µM (inactive) | > 100 µM (inactive) | > 100 µM (inactive) | > 100 µM (inactive) | > 100 µM (inactive) | > 100 µM (inactive) | > 100 µM (inactive) | > 100 µM (inactive) | 63 µM (inactive) | > 100 µM (inactive) | – | – | > 100 µM (inactive) | > 100 µM (inactive) | > 100 µM (inactive) | > 100 µM (inactive) | > 100 µM (inactive) | > 100 µM (inactive) | –
Cc1ccccc1NC(=O)C(=O)Cc1cnc2ccccc2n1 | > 100 µM (inactive) | > 100 µM (inactive) | > 100 µM (inactive) | > 100 µM (inactive) | > 100 µM (inactive) | > 100 µM (inactive) | > 100 µM (inactive) | > 100 µM (inactive) | > 100 µM (inactive) | > 100 µM (inactive) | > 100 µM (inactive) | 69.8 µM (inactive) | > 100 µM (inactive) | > 100 µM (inactive) | > 100 µM (inactive) | > 100 µM (inactive) | > 100 µM (inactive) | – | > 100 µM (inactive) | –
COc1ccc2c(c1)C(N)CC2=O (configuration not stated) | > 100 µM (inactive) | > 100 µM (inactive) | > 100 µM (inactive) | > 100 µM (inactive) | > 100 µM (inactive) | > 100 µM (inactive) | > 100 µM (inactive) | > 100 µM (inactive) | > 100 µM (inactive) | > 100 µM (inactive) | > 100 µM (inactive) | > 100 µM (inactive) | > 100 µM (inactive) | > 100 µM (inactive) | > 100 µM (inactive) | > 100 µM (inactive) | > 100 µM (inactive) | > 100 µM (inactive) | > 100 µM (inactive) | –
C=C(C1=CC(=O)C(C)(C)O1)[C@@H]1CC=C([C@@H]2CC[C@H]3[C@@]2(C)CC[C@H]2C(C)(C)C(=O)[C@H](O)C[C@]32C)[C@H](O)O1 | 8.04 µM (inactive) | 4.42 µM (inactive) | 3.27 µM (inactive) | 1.98 µM (inactive) | 1.88 µM (inactive) | 5.16 µM (inactive) | 0.273 µM (active) | 2.15 µM (inactive) | 1.03 µM (active) | 3.86 µM (inactive) | 2.89 µM (inactive) | 0.729 µM (active) | 1.98 µM (inactive) | 1.66 µM (inactive) | 17.5 µM (inactive) | 3.11 µM (inactive) | 0.982 µM (active) | 3.15 µM (inactive) | 0.847 µM (active) | –
Cc1ccc2ccc(O)cc2c1 | 39.4 µM (inactive) | > 100 µM (inactive) | 37.9 µM (inactive) | 94.6 µM (inactive) | 31.8 µM (inactive) | 37.2 µM (inactive) | 76.2 µM (inactive) | 30 µM (inactive) | 91.6 µM (inactive) | 28.4 µM (inactive) | 18.2 µM (inactive) | 23.9 µM (inactive) | 24.9 µM (inactive) | 37 µM (inactive) | 39.3 µM (inactive) | 20.9 µM (inactive) | 22.6 µM (inactive) | > 100 µM (inactive) | 10.2 µM (inactive) | –
COc1ccc(-n2c3c(c4cc(O)ccc42)Cc2ccccc2C3=O)cc1 | 16.5 µM (inactive) | 28.1 µM (inactive) | > 100 µM (inactive) | 57.3 µM (inactive) | 26.6 µM (inactive) | 90.6 µM (inactive) | 50.2 µM (inactive) | 20.1 µM (inactive) | > 100 µM (inactive) | 28.8 µM (inactive) | – | 4.9 µM (inactive) | – | 57 µM (inactive) | 63.7 µM (inactive) | 7.83 µM (inactive) | 11.5 µM (inactive) | 42.7 µM (inactive) | 21.4 µM (inactive) | 41.9 µM (inactive)
O=c1[nH]c2cc3cccnc3c(Cl)c2nc1CBr | 21.6 µM (inactive) | – | 13.1 µM (inactive) | 14 µM (inactive) | 22.2 µM (inactive) | – | 6.49 µM (inactive) | 15.9 µM (inactive) | 15.6 µM (inactive) | 15.5 µM (inactive) | – | 5.79 µM (inactive) | 14.1 µM (inactive) | 11.4 µM (inactive) | 19.1 µM (inactive) | 19.3 µM (inactive) | 8.97 µM (inactive) | 15.5 µM (inactive) | 14.8 µM (inactive) | 6.18 µM (inactive)
Cn1c(-c2ccc(/N=N/Nc3ccc(-c4n[nH]c(=S)n4C)cc3)cc2)n[nH]c1=S | 18.3 µM (inactive) | > 100 µM (inactive) | 32.1 µM (inactive) | > 100 µM (inactive) | 16.5 µM (inactive) | 24.9 µM (inactive) | 52 µM (inactive) | 18.8 µM (inactive) | 12.8 µM (inactive) | – | – | 3.98 µM (inactive) | 2.91 µM (inactive) | > 100 µM (inactive) | 5.36 µM (inactive) | > 100 µM (inactive) | 3.08 µM (inactive) | 20.3 µM (inactive) | 33.3 µM (inactive) | 4.81 µM (inactive)
Clc1nc(NCCc2ccccc2)c2ncn(-c3ccccc3)c2n1 | 25.3 µM (inactive) | 33.3 µM (inactive) | 24.4 µM (inactive) | 27.5 µM (inactive) | 36.5 µM (inactive) | 17.3 µM (inactive) | 16.9 µM (inactive) | 21.8 µM (inactive) | 25.2 µM (inactive) | 16.8 µM (inactive) | 17.1 µM (inactive) | – | – | 29.3 µM (inactive) | 24.1 µM (inactive) | 14.1 µM (inactive) | 22 µM (inactive) | 20.6 µM (inactive) | 25.2 µM (inactive) | –
O=c1[nH]nc(Cc2ccccc2)n1/N=C/c1cccs1 | > 100 µM (inactive) | > 100 µM (inactive) | > 100 µM (inactive) | > 100 µM (inactive) | > 100 µM (inactive) | 16 µM (inactive) | > 100 µM (inactive) | 23.4 µM (inactive) | > 100 µM (inactive) | > 100 µM (inactive) | > 100 µM (inactive) | > 100 µM (inactive) | – | > 100 µM (inactive) | > 100 µM (inactive) | > 100 µM (inactive) | 80.7 µM (inactive) | > 100 µM (inactive) | > 100 µM (inactive) | –
Clc1cc(-c2ccccc2)nc2ccccc12 | 38.4 µM (inactive) | 57.5 µM (inactive) | 30.1 µM (inactive) | 41.1 µM (inactive) | 44.9 µM (inactive) | 33 µM (inactive) | 39.5 µM (inactive) | 35.4 µM (inactive) | 40.6 µM (inactive) | 28.1 µM (inactive) | – | 23.8 µM (inactive) | 36.8 µM (inactive) | 43.6 µM (inactive) | 28.4 µM (inactive) | 20.7 µM (inactive) | 22.1 µM (inactive) | > 100 µM (inactive) | 49.9 µM (inactive) | –
N=C(N)NCCCC(NC(=O)c1cccc2c(=O)c3ccccc3[nH]c12)C(=O)O (configuration not stated) | > 100 µM (inactive) | > 100 µM (inactive) | > 100 µM (inactive) | > 100 µM (inactive) | > 100 µM (inactive) | > 100 µM (inactive) | > 100 µM (inactive) | > 100 µM (inactive) | > 100 µM (inactive) | > 100 µM (inactive) | – | > 100 µM (inactive) | 58.9 µM (inactive) | > 100 µM (inactive) | > 100 µM (inactive) | > 100 µM (inactive) | > 100 µM (inactive) | > 100 µM (inactive) | > 100 µM (inactive) | > 100 µM (inactive)
